Tests used:
cold receptors [1] = test: Threshold test: minimum quantity of compound on filter paper square on tongue giving a noticeable cooling effect, selected panel of 6 people; assay type: in vivo, human; settings: for Threshold (average minimum quantity to produce a noticeable cooling effect): panel of 6 people, cooling reported 50% of the time
Text: For example, a controlling factor in the onset of cooling effect, its intensity and longevity will be the rate of penetration of the compounds through the epidermis and this will vary in different locations on the human body.
It will also benoted that the described test procedure is done on a statistical basis. This is necessary since sensitivity to these compounds will vary not only from compound to compound and from one part of the body to another, but also from one individual to another. Tests of this nature are commonly used in the testing of the organoleptic properties, e.g. taste, smell etc. of organic and inorganic compounds, see Kirk-Othmer: Encyclopedia of Chemical Technology, 2nd. Ed.
The following test procedure is aimed at determining the minimum quantity of the test compound required to produce a noticeable cooling effect on a person of average sensitivity, this minimum quantity being termed the threshold for that particular compound. The tests are carried out on a selected panel of 6 people of median sensitivity to 1-menthol.
To select a test panel of average sensitivity the following procedure is used. Known quantities of 1-menthol in solution in petroleum ether (bp.40-60) are placed on 5 mm. squares of filter paper, whereafter the solvent is allowed to evaporate. A panel of observers is enrolled and asked to place one impregnated square at a time on the tongue and to report on the presence or absence of a cooling effect. […] Conveniently, one starts with squares containing 2.0 μg. 1-menthol, the amount on each successive square being half that of the preceding square, i.e. the second test square will contain 1.0 μg, the third 0.5 μg and so on. Each quantity is tested on the tongue at least 10 times. In this way, the thresholds to cold receptor stimulus by 1-menthol are determined for each individual of the panel, the threshold for each individual being that amount of 1-menthol for which, in a series of not less than 10 test applications, a cooling effect is reported 50% of the time.
To test the activity of compounds according to this invention, the above procedure is repeated using only the 6 selected panel members of average sensitivity to 1-menthol. The individual thresholds for each test compound on each of the 6 selected panel members are determined and averaged. Those compounds whose average threshold on the select test panel is 100 μg or less are regarded as having cooling activity in accordance with this invention.

cold receptors [2] = test: Cooling effect of consumer product applied to skin (face, scalp, lips, forehead); assay type: in vivo, human
Description: Into two separate samples of the base lotion were added 2.0% by weight based on the total composition of N-ethyl-p-menthane-3-carboxamide and N,N-dimethyl-p-menthane-3-carboxamide, each into a different one of the two samples.
To the recipe was added 3.0%, based on the total composition of N-p-menth-3-oylglycine methyl ester. […]
Sodium lauryl ether sulphate, 10 g., was dispersed in 90 g. water in a high speed mill. To the dispersion was added 3.3% by weight of N-(2-hydroxy-n-propyl)-p-menthane-3-carboxamide. […]
The sodium stearate was dissolved by stirring in a warm mixture of the ethanol propylene glycol and water. To the solution was added the perfume and 3.0% of N-(2-hydroxy-n-propyl)-p-menthane-3-carboxamide and the mixture then allowed to solidify into a waxy cake. […]
This Example illustrates now the physiological cooling effect of the compounds of this invention varies according to the locality of application.
In the course of grinding there was added 3.0% of N-n-propyl-p-menthane-3-carboxamide. […]
To this liquid was added 1.0% of N-ethyl-p-menthane-3-carboxamide. A paper tissue was then soaked in the liquid.

Structure (SMILES)	Threshold (average minimum quantity to produce a noticeable cooling effect) (cold receptors [1]) [µg]	also measured
CC1CCC(C(C)C)C(O)C1 (stereo not drawn) [1-menthol, reference compound]	–	average threshold to 1-menthol of selected panel (cold receptors [1]; panel selection criterion, six members): approximately 0.25 μg
CC1CCC(C(C)C)C(C(=O)N2CCCC2)C1 (stereo not drawn) [--(CH2 H4 --]	5	–
CC1CCC(C(C)C)C(C(=O)N2CCCCC2)C1 (stereo not drawn) [--(CH2)5 --]	6	–
CCN(CC)C(=O)C1CC(C)CCC1C(C)C (stereo not drawn) [--C2 H5, --C2 H5]	3	–
CCN(CC(C)C)C(=O)C1CC(C)CCC1C(C)C (stereo not drawn) [--C2 H5, --C4 H9 (iso)]	5	–
CC1CCC(C(C)C)C(C(=O)N(CCO)C(C)C)C1 (stereo not drawn) [--C3 H7 (iso), --CH2 CH2 OH]	3	–
CC1CCC(C(C)C)C(C(=O)N2CCNCC2)C1 (stereo not drawn) [--CH2 CH2 NHCH2 CH2 --]	15	–
CC1CCC(C(C)C)C(C(=O)N(C)CCO)C1 (stereo not drawn) [--CH3, --CH2 CH2 OH]	5	–
CCOC(=O)CN(C)C(=O)C1CC(C)CCC1C(C)C (stereo not drawn) [--CH3, --CH2 CO2 C2 H5]	0.8	–
CC1CCC(C(C)C)C(C(=O)N2C(C)CCC2C)C1 (stereo not drawn) [--CH(CH3)CH2 CH2 CH(CH3)--]	0.5	–
CC1CCC(C(C)C)N(C(=O)C2CC(C)CCC2C(C)C)CC1 (stereo not drawn) [--CH(iso-C3 H7)CH2 CH2 CH(CH3)CH2 CH2 --]	50	–
CC1CCC(C(C)C)C(C(=O)Nc2cccnc2)C1 (stereo not drawn) [H, --3-Pyridyl]	0.5	–
CC1CCC(C(C)C)C(C(=O)NCCCO)C1 (stereo not drawn) [H, --(CH2)3 OH, N-3-hydroxypropyl-p-menthane carboxamide]	3	cooling effect (cold receptors [2]; Example 24 repeated, cleansing tissue, 2.0%, skin, in place of the N-ethyl compound): equally effective results
CC1CCC(C(C)C)C(C(=O)NCCCCCCO)C1 (stereo not drawn) [H, --(CH2)6 OH]	1.0	–
CC1CCC(C(C)C)C(C(=O)NC2CC2)C1 (stereo not drawn) [H, --C3 H5 (cyclo)]	0.5	–
CC1CCC(C(C)C)C(C(=O)NC(C)C)C1 (stereo not drawn) [H, --C3 H7 (iso)]	0.5	–
CC(C)CNC(=O)C1CC(C)CCC1C(C)C (stereo not drawn) [H, --C4 H9 (iso)]	0.9	–
CCCCNC(=O)C1CC(C)CCC1C(C)C (stereo not drawn) [H, --C4 H9 (n)]	1.4	–
CCC(C)NC(=O)C1CC(C)CCC1C(C)C (stereo not drawn) [H, --C4 H9 (sec)]	0.7	–
CC1CCC(C(C)C)C(C(=O)NC(C)(C)C)C1 (stereo not drawn) [H, --C4 H9 (tert.)]	0.4	–
CC1CCC(C(C)C)C(C(=O)NC2CCCC2)C1 (stereo not drawn) [H, --C5 H9 (cyclo)]	0.5	–
CCCCCNC(=O)C1CC(C)CCC1C(C)C (stereo not drawn) [H, --C5 H11 (n)]	3	–
Cc1ccc(NC(=O)C2CC(C)CCC2C(C)C)cc1C (stereo not drawn) [H, --C6 H3 Me2 (m,p)]	0.1	–
Cc1ccc(NC(=O)C2CC(C)CCC2C(C)C)cc1O (stereo not drawn) [H, --C6 H3 Me(p)OH(m)]	0.1	–

Structure (SMILES)	Threshold (average minimum quantity to produce a noticeable cooling effect) (cold receptors [1]) [µg]	also measured
CC1CCC(C(C)C)C(C(=O)Nc2ccc(F)cc2)C1 (stereo not drawn) [H, --C6 H4 F(p)]	0.5	–
Cc1ccc(NC(=O)C2CC(C)CCC2C(C)C)cc1 (stereo not drawn) [H, --C6 H4 Me(p)]	0.3	–
CC1CCC(C(C)C)C(C(=O)Nc2ccc([N+](=O)[O-])cc2)C1 (stereo not drawn) [H, --C6 H4 NO2 (p)]	0.3	–
CC1CCC(C(C)C)C(C(=O)Nc2ccccc2O)C1 (stereo not drawn) [H, --C6 H4 OH(o)]	0.5	–
CC1CCC(C(C)C)C(C(=O)Nc2ccc(O)cc2)C1 (stereo not drawn) [H, --C6 H4 OH(p)]	1.4	–
COc1ccc(NC(=O)C2CC(C)CCC2C(C)C)cc1 (stereo not drawn) [H, --C6 H4 OMe(p)]	0.1	–
CC1CCC(C(C)C)C(C(=O)NC2CCCCC2)C1 (stereo not drawn) [H, --C6 H11 (cyclo)]	1	–
CC1CCC(C(C)C)C(C(=O)NC2CCCCCC2)C1 (stereo not drawn) [H, --C7 H13 (cyclo)]	3	–
CCCCCCCCCCNC(=O)C1CC(C)CCC1C(C)C (stereo not drawn) [H, --C10 H21 (n)]	10	–
CC1CCC(C(C)C)C(C(=O)NCC2CCCCCC2)C1 (stereo not drawn) [H, --CH2 (C7 H13 (cyclo)]	20	–
CCOC(=O)CCNC(=O)C1CC(C)CCC1C(C)C (stereo not drawn) [H, --CH2 CH2 COOC2 H5]	1.5	–
CC1CCC(C(C)C)C(C(=O)NCCN)C1 (stereo not drawn) [H, --CH2 CH2 NH2]	20	–
CC(=O)OCCNC(=O)C1CC(C)CCC1C(C)C (stereo not drawn) [H, --CH2 CH2 OCOCH3]	1.5	–
CCOC(=O)CNC(=O)C1CC(C)CCC1C(C)C (stereo not drawn) [H, --CH2 COOC2 H5]	0.2	–
CCCOC(=O)CNC(=O)C1CC(C)CCC1C(C)C (stereo not drawn) [H, --CH2 COOC3 H7 (n), N-(p-menth-3-oyl)glycine n-propyl ester]	0.3	cooling effect (cold receptors [2]; Example 22, antipruritic ointment, 0.1%, skin): soothing effect on the skin accompanied by a noticeable cooling effect
COC(=O)CNC(=O)C1CC(C)CCC1C(C)C (stereo not drawn) [H, --CH2 COOCH3, N-(p-menth-3-oyl)glycine methyl ester]	0.6	cooling effect (cold receptors [2]; Example 3, toilet water, 3.0%, skin): a cooling effect was clearly noticeable on the skin well after the termination of any cooling effect attributable to the evaporation of the alcoholic carrier; cooling effect (cold receptors [2]; Example 8, hair tonic, 2.0%, scalp): a cooling effect is noticed; cooling effect (cold receptors [2]; Example 21, antiseptic ointment, 0.5%, skin): marked cooling effect
CC1CCC(C(C)C)C(C(=O)NCC(=O)O)C1 (stereo not drawn) [H, --CH2 COOH, N-(p-menth-3-oyl) glycine]	16	cooling effect (cold receptors [2]; Example 6, lipstick, 0.6%, lips): a persistent cooling effect is clearly noiticeable
CC1CCC(C(C)C)C(C(=O)NCC#CCO)C1 (stereo not drawn) [H, --CH2 C≡CCH2 OH]	17	–
CC1CCC(C(C)C)C(C(=O)NCO)C1 (stereo not drawn) [H, --CH2 OH]	12	–
CC1CCC(C(C)C)C(C(=O)NCc2ccccc2)C1 (stereo not drawn) [H, --CH2 Ph]	10	–
CCC(CO)NC(=O)C1CC(C)CCC1C(C)C (stereo not drawn) [H, --CH(C2 H5)CH2 OH]	1.0	–
CCOC(=O)CC(C)NC(=O)C1CC(C)CCC1C(C)C (stereo not drawn) [H, --CH(CH3)CH2 COOC2 H5]	0.8	–
CCOC(=O)C(C)NC(=O)C1CC(C)CCC1C(C)C (stereo not drawn) [H, --CH(CH3)COOC2 H5]	0.4	–
CC1CCC(C(C)C)C(C(=O)NO)C1 (stereo not drawn) [H, --OH]	11	–

— patent US4136163A, “P-Menthane carboxamides having a physiological cooling effect” (Wilkinson Sword Limited, priority 1971, dated 1979)
